# Results reported in patent US12391675B2, “NLRP3 modulators” (INNATE TUMOR IMMUNITY, INC., priority 2019, dated 2025).
# Target: T1, NLRP3 (Homo sapiens, UniProt Q96P20)
# T1 construct: host or cells: PMA-differentiated THP-1 cells
# Assay: Measurement of IL-1β production in PMA-differentiated THP-1 cells (NLRP3 hIL1B EC50)
# Type: cell-based
# Method: Measurement of IL-1β Production in PMA-Differentiated THP-1 Cells
# THP-1 cells were purchased from the American Type Culture Collection and sub-cultured according to instructions from the supplier. Prior to experiments, cells were cultured in RPMI 1640 containing 10% heat inactivated FBS, penicillin (100 units/ml) and streptomycin (100 μg/ml), and maintained in log phase prior to experimental setup. Prior to the experiment THP-1 were treated with PMA (Phorbol 12-myristate 13-acetate) (10 μg/ml) for 24 hours. The day of the experiment the media was removed and attaching cells were treated with trypsin for 2 minutes, cells were then collected, washed with PBS (phosphate buffer saline), spin down, resuspended in 2% heat inactivated FBS with RPMI at a concentration of 1×10^6 cells/ml, and 100 μl was plated in a 96 well plate. Compounds were dissolved in dimethyl sulfoxide (DMSO) and added to the culture medium to achieve desired concentration (e.g. 100, 30, 10, 3, 1, 0.3 or 0.1 μM). Cells were incubated with compounds for 4 hours. Cell free supernatant was collected and the production of IL-1β was evaluated by ELISA. A vehicle only control was run concurrently with each experiment. Final DMSO concentration was 1%.
# Measurement of IL-1β Production in PMA-Differentiated THP-1 Cells (Alternative Procedure)
# THP-1 cells were purchased from the American Type Culture Collection and sub-cultured according to instructions from the supplier. Prior to experiments, cells were cultured in RPMI 1640 containing 10% heat inactivated FBS, penicillin (100 units/ml), streptomycin (100 μg/ml), HEPES (10 mM) and sodium pyruvate (1 mM) and maintained in log phase prior to experimental setup. Prior to the experiment, THP-1 cells were treated with PMA (Phorbol 12-myristate 13-acetate) (20 μg/ml) overnight. The day of the experiment, the media was removed and attached cells were treated with trypsin for 2 minutes, cells were then collected, washed with PBS (phosphate buffer saline), pelleted by centrifugation and resuspended in 2% heat inactivated FBS with RPMI at a concentration of 50,000 cells/well in a 384 well plate. Cell free supernatant was collected and the production of IL-1β was evaluated by ELISA. Compounds were dissolved in dimethyl sulfoxide (DMSO) and added to the culture medium to achieve desired concentration (e.g. 100, 30, 10, 3, 1, 0.3 or 0.1 μM). Cells were incubated with compounds for 2 hours. A vehicle only control was run concurrently with each experiment. Final DMSO concentration was 1%.
# Measurement of IL-1β Production—hTRF Protocol (Second Alternative Procedure)
# Serial dilutions of compounds in DMSO were added to low volume 384 well plates at 100 nl/well using an ECHO 550 acoustic dispenser (Labcyte) to achieve final starting concentration of 10 μM in assay.
# THP-1 cells in RPMI (Gibco, 11875) media with 10% FBS at a density of 1×10^6 cell/ml in a T175 flask were treated with a final concentration of phorbol 12-myristate 13-acetate (PMA) (Sigma, P1585) of 50 ng/ml overnight at 37° C. at 5% CO2 for differentiation. Cells were harvested the next day after rinsing well wth dPBS using 0.5% trypsin. A cell solution was prepared of 1×10^6 cells/ml for 50,000 cells in 50 μl/well in RPMI media with 2% FBS. Cells were plated using a multichannel pipette onto the compound dilutions in Greiner, 384 well, black clear bottom tissue culture treated plates (781090). The plates were incubated in 37° C. incubator at 5% CO2 for 2 hours.
# After the 2 hour incubation, the cell plates were spun in the centrifuge for 5 minutes at 1200 rpm. Using the Felix (CyBio), 8 μl of the supernatant was transferred to 384 well, low volume, white proxy plates. (Perkin Elmer, 6008230). A human IL1beta hTRF kit was used to analyze the supernatant (CISBIO, 62HIL1BPEG). The kit instructions were followed for preparing the IL1Beta standard curve and then the antibodies from the kit were diluted 1:40 rather than 1:20 as kit instructed. […]
# T1 sequence (Q96P20 whole entry): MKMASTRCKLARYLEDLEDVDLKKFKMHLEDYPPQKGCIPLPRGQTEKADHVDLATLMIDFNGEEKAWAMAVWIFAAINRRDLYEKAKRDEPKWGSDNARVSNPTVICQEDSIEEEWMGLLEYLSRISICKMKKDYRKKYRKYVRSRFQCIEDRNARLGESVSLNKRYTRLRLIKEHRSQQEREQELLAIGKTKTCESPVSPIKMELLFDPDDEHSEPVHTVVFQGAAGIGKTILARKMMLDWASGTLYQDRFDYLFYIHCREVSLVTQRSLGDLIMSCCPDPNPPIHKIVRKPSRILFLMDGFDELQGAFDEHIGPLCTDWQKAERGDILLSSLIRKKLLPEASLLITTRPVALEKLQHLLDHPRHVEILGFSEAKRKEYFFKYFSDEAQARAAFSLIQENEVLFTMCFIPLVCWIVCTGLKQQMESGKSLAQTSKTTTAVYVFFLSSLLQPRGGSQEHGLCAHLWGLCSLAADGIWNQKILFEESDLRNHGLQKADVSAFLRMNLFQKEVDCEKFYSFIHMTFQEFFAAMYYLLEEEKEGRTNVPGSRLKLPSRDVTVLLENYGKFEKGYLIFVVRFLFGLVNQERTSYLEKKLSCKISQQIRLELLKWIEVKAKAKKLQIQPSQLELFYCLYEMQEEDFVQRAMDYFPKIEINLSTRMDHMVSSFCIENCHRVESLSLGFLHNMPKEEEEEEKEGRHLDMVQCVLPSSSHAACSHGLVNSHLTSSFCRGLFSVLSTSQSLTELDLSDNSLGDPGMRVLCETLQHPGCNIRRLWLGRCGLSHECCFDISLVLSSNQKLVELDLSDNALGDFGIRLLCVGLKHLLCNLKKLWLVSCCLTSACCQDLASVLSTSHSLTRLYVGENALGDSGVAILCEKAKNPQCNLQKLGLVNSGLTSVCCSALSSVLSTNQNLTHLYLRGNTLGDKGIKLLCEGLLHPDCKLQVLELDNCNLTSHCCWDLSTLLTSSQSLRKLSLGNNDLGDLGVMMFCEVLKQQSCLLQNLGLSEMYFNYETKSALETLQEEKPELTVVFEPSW
row,EC50 [nM],SMILES
1,1000,"Nc1nc(NC2CC3(CC(O)C3)C2)c2ccc(-c3ccn[nH]3)cc2n1 (stereo not drawn) [Example 3, 6-((2-amino-7-(1H-pyrazol-5-yl)quinazolin-4-yl)amino)spiro[3.3]heptan-2-ol]"
2,650,"Nc1cc(N[C@@H]2C[C@@H]3CC[C@H]2O3)c2ccc(-c3ccn[nH]3)cc2n1 (racemic) [Example 30, rac-N4-((1R,2R,4S)-7-oxabicyclo[2.2.1]heptan-2-yl)-7-(1H-pyrazol-5-yl)quinoline-2,4-diamine]"
3,250,"Nc1cc(N[C@H]2C[C@@H]3CC[C@H]2O3)c2ccc(-c3ccn[nH]3)cc2n1 (racemic) [Example 15, rac-N4-((1R,2S,4S)-7-oxabicyclo[2.2.1]heptan-2-yl)-7-(1H-pyrazol-5-yl)quinoline-2,4-diamine]"
4,390,"CC(C)(C)OC(=O)N1CCC2(CC1)CC2Nc1nc(N)nc2cc(-c3cc[nH]n3)ccc12 (racemic) [Example 27, (rac)-tert-butyl 1-((2-amino-7-(1H-pyrazol-3-yl)quinazolin-4-yl)amino)-6-azaspiro[2.5]octane-6-carboxylate]"
5,1600,"Nc1nc(N2C[C@H]3C[C@@H]2CO3)c2ccc(-c3cc[nH]n3)cc2n1 (single isomer, unassigned) [Example 10]"
6,980,"Nc1cc(N[C@H]2C3CCC(C3)[C@H]2CO)c2ccc(-c3ccn[nH]3)cc2n1 (single isomer, unassigned) [Example 18B]"
7,880,Nc1cc(NC2CC3(CC(O)C3)C2)c2ccc(-c3ccn[nH]3)cc2n1 (stereo not drawn) [Example 21]
8,85,"Nc1nc(NC2CC23CC3)c2ccc(-c3cc[nH]n3)cc2n1 (single isomer, unassigned) [Example 36A]"
9,310,Nc1nc(N[C@H]2[C@@H]3COC[C@@H]32)c2ccc(-c3ccn[nH]3)cc2n1 [Example 4]
10,250,"Nc1cc(N[C@H]2C[C@@H]3C[C@@H](O)[C@H]2O3)c2ccc(-c3ccn[nH]3)cc2n1 (single isomer, unassigned) [Example 32B]"
11,160,"Nc1nc(NC2CC3CC(O)C2C3)c2ccc(-c3ccn[nH]3)cc2n1 (single isomer, unassigned) [Example 41A]"
12,120,"Nc1nc(N[C@@H]2C[C@H]3CC[C@@H]2O3)c2ccc(-c3ccn[nH]3)cc2n1 (racemic) [Example 1, rac-N4-((1R,2S,4S)-7-oxabicyclo[2.2.1]heptan-2-yl)-7-(1H-pyrazol-5-yl)quinazoline-2,4-diamine]"
13,110,Nc1cc(N[C@H]2[C@@H]3COC[C@@H]32)c2ccc(-c3ccn[nH]3)cc2n1 [Example 20]
14,860,Nc1nc(NCC2C[C@H]3CC[C@@H]2CC3)c2ccc(-c3cc[nH]n3)cc2n1 (stereo partly drawn) [Example 39]
15,2370,"Nc1nc(N[C@H]2C[C@@H]3C[C@H]2[C@@H](O)C3)c2ccc(-c3ccn[nH]3)cc2n1 (racemic) [Example 44, rac-(1R,2S,4S,6S)-6-((2-amino-7-(1H-pyrazol-5-yl)quinazolin-4-yl)amino)bicyclo[2.2.1]heptan-2-ol]"
16,2580,CCN1CCC2(CCN(c3nc(N)nc4cc(-c5cc[nH]n5)ccc34)C2)C1 (stereo not drawn) [Example 38]
17,640,"Nc1cc(N[C@@H]2C[C@H]3C[C@@H](O)C[C@H]3C2)c2ccc(-c3ccn[nH]3)cc2n1 [Example 14, (2r,3aR,5r,6aS)-5-((2-amino-7-(1H-pyrazol-5-yl)quinolin-4-yl)amino)octahydropentalen-2-ol]"
18,30,"Nc1cc(NC2CC3(CC(O)C3)C2)c2ccc(-c3ccn[nH]3)cc2n1 (single isomer, unassigned) [Example 26A, (Sa)-6-(2-amino-7-(1H-pyrazol-5-yl)quinolin-4-ylamino)spiro[3.3]heptan-2-ol]"

row,EC50 [nM],SMILES
1,190,Nc1nc(NC2CC23CC3)c2ccc(-c3cc[nH]n3)cc2n1 (stereo not drawn) [Example 35]
2,680,"Nc1nc(N2CC3CC2CO3)c2ccc(-c3cc[nH]n3)cc2n1 (racemic) [Example 9, rac-4-(2-oxa-5-azabicyclo[2.2.1]heptan-5-yl)-7-(1H-pyrazol-3-yl)quinazolin-2-amine]"
3,1330,"Nc1cc(N[C@@H]2C[C@H]3C[C@@H]2[C@@H](O)C3)c2ccc(-c3ccn[nH]3)cc2n1 (racemic) [Example 46, rac-(1S,2S,4R,6R)-6-((2-amino-7-(1H-pyrazol-5-yl)quinolin-4-yl)amino)bicyclo[2.2.1]heptan-2-ol]"
4,220,"Nc1nc(N[C@H]2CC3CC2[C@@H](O)C3)c2ccc(-c3ccn[nH]3)cc2n1 (mixture of isomers) [Example 40, rac-(2S,6S)-6-((2-amino-7-(1H-pyrazol-5-yl)quinazolin-4-yl)amino)bicyclo[2.2.1]heptan-2-ol]"
5,1940,"CC(C)(C)OC(=O)N1CCC2(CC1)CC2Nc1nc(N)nc2cc(-c3cc[nH]n3)ccc12 (single isomer, unassigned) [Example 28A]"
6,500,"Nc1nc(N[C@@H]2C[C@@H]3CC[C@H]2O3)c2ccc(-c3ccn[nH]3)cc2n1 (racemic) [Example 29, rac-N4-((1R,2R,4S)-7-oxabicyclo[2.2.1]heptan-2-yl)-7-(1H-pyrazol-5-yl)quinazoline-2,4-diamine]"
7,780,"CC(C)(C)OC(=O)N1CCC2(CC1)CC2Nc1nc(N)nc2cc(-c3cc[nH]n3)ccc12 (single isomer, unassigned) [Example 28B]"
8,540,"Nc1cc(NCC23CCC(CC2)OC3)c2ccc(-c3ccsc3)cc2n1 [Example 49, N4-((2-oxabicyclo[2.2.2]octan-4-yl)methyl)-7-(thiophen-3-yl)quinoline-2,4-diamine]"
9,3000,"Nc1nc(N[C@H]2C[C@@H]3C[C@H]2[C@@H](O)C3)c2ccc(-c3ccn[nH]3)cc2n1 (single isomer, unassigned) [Example 45B]"
10,740,Nc1nc(N[C@H]2C[C@@H]3C[C@H]2C[C@H]3O)c2ccc(-c3ccn[nH]3)cc2n1 (racemic) [Example 42]
11,320,Nc1cc(NC23CC(C2)C3)c2ccc(-c3ccn[nH]3)cc2n1 [Example 19]
12,1210,"Nc1nc(N[C@H]2C[C@H]3O[C@@H]2C[C@@H]3O)c2ccc(-c3ccn[nH]3)cc2n1 (racemic) [Example 31A, rac-(1R,2S,4R,5S)-5-((2-amino-7-(1H-pyrazol-5-yl)quinazolin-4-yl)amino)-7-oxabicyclo[2.2.1]heptan-2-ol]"
13,960,"Nc1nc(NC2CC3CC(O)C2C3)c2ccc(-c3ccn[nH]3)cc2n1 (single isomer, unassigned) [Example 41B]"
14,130,"Nc1nc(NC2CC23CC3)c2ccc(-c3cc[nH]n3)cc2n1 (single isomer, unassigned) [Example 36B]"
15,1850,"Nc1nc(N[C@@H]2C[C@H]3C[C@H](O)[C@@H]2O3)c2ccc(-c3ccn[nH]3)cc2n1 (racemic) [Example 31B, rac-(1R,2S,4S,6R)-6-((2-amino-7-(1H-pyrazol-5-yl)quinazolin-4-yl)amino)-7-oxabicyclo[2.2.1]heptan-2-ol]"
16,3960,"Nc1nc(NCC23CC(CO)(C2)C3)c2ccc(-c3ccn[nH]3)cc2n1 [Example 34, (3-(((2-amino-7-(1H-pyrazol-5-yl)quinazolin-4-yl)amino)methyl)bicyclo[1.1.1]pentan-1-yl)methanol]"
17,740,Nc1cc(N2CC3CCC(C2)O3)c2ccc(-c3ccn[nH]3)cc2n1 [Example 23]

row,SMILES,EC50 [nM]
1,"Nc1cc(N2C3CCC2COC3)c2ncc(-c3cc[nH]n3)cc2n1 [Example 24, 4-(3-oxa-8-azabicyclo[3.2.1]octan-8-yl)-7-(1H-pyrazol-3-yl)-1,5-naphthyridin-2-amine]",890
